Read-outs that look alike come from different tables or passages of the source.
Biological target: T1, human 5-HT3A receptor (Homo sapiens, UniProt P46098)
T1 construct: host or cells: Xenopus laevis oocytes injected with in vitro transcribed mRNA
T1 sequence (P46098 24-478): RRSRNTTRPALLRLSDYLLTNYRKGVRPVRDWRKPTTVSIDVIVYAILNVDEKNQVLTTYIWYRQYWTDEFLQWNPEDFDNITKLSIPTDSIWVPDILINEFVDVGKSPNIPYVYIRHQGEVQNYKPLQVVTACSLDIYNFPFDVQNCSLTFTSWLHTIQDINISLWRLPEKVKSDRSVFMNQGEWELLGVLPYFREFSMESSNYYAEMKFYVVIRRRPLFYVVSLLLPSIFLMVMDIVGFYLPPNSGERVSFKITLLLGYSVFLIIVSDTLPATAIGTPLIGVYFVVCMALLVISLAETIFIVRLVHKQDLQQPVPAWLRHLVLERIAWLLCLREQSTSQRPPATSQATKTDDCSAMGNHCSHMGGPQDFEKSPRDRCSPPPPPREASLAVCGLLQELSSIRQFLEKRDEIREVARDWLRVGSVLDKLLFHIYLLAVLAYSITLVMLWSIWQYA
Experiment: cell-based
Format: cell-based
Conditions: for inhibition of voltage ramp current activated by 5-HT: 100 µM 5-HT and EC
Protocol: Human 5-hydroxytryptamine (serotonin) receptor 3A cDNA (Genebank number: BC004453) was obtained from OriGene (Rockville, MD, USA). Figure 1A represents the chemical structure of two ergot alkaloids, EG and EC, obtained from Sigma-Aldrich (St. Louis, MO, USA). These ergot alkaloids were diluted in bath solution after dissolving in dimethyl sulfoxide (DMSO) for use as stock solutions. The final treatment concentration of DMSO was less than 0.01%. Xenopus laevis frogs were obtained from the Korean Xenopus Resource Center for Research (KXRCR000001, Chuncheon, Gangwondo, Korea), and other agents were purchased from Sigma-Aldrich.
To isolate oocytes, female Xenopus laevis were put into a container filled with ice and left for about one hour. When the blood vessels contracted and fell into a state similar to hibernation, the abdomen was incised, and the ovaries were removed and cut into small pieces in Ca^2+-free OR2 solution (82.5 mM NaCl, 2.5 mM KCl, 1 mM MgCl2, and 5 mM HEPES, pH 7.4) with 2 mg/mL collagenase. After a 2 h agitation to digest the follicle membranes, isolated oocytes in stages Ⅴ and Ⅵ were selected and washed repeatedly. The selected oocytes were maintained in ND96 incubation solution (96 mM NaCl, 2 mM KCl, 1.8 mM CaCl2, 1 mM MgCl2, 5 mM HEPES, 2.5 mM sodium pyruvate, and 50 µg/mL gentamycin, pH 7.4) at 16–18 °C. The solution containing the oocytes was changed twice a day and stored in a shaking incubator. Under the microscope, the end of a glass capillary was broken and fitted with a 20 µm diameter needle and filled with mineral oil, discharging air bubbles from the tip. When the Xenopus oocytes were ready for injection, 50 ng of mRNA was injected with a nanoliter injector (Drummond Scientific, Vernon Hills, IL, USA). The recording was started after two days of sufficient shaking incubation in ND96 solution. Surgery, microinjections, and the other handling of Xenopus laevis followed the standard protocols.
The oocytes in which mRNA was expressed during the incubation period allowed for the estimation of channel or receptor properties for observing drug and ligand potential interactions using a two-electrode voltage clamp (OC-725C; Warner Instruments, Hamden, CT, USA) and Digidata (1322A; Molecular Devices, Sunnyvale, CA, USA). The two-electrode voltage clamp had voltage and current electrodes that stably maintained the potential and delivered the transmembrane potential and high current. […] A computer transferred the converted output amplitude of the voltage clamp amplifiers to an input digital converter using pClamp 10 software (Axon Instruments, Union City, CA, USA). The voltage and current electrodes were filled with 3 M KCl (0.3–0.7 MΩ) and analyzed at a −80 mV holding potential. The oocytes were placed in the chamber and exposed to a ND96 solution at a flow rate of 2 mL per minute. In the electrophysiological experiments, the voltage ramp recording was performed at room temperature, and a current from −80 to +60 mV was applied to determine the current and voltage relationships. Inward peak traces of the 5-HT3A receptor and voltage ramp traces were converted to a value through Clampfit 9.0 (Molecular Devices, San Jose, CA, USA).
In the experiments, all data were represented as the mean ± SEM (standard error of the mean) of the 5-HT-stimulated inward peak in the 5-HT3A receptors. […] All curves plotted through the Hill equation were generated using Origin Pro 7.0 (OriginLab, Northampton, MA, USA). The significance of differences between the control and chanoclavine treatment was determined according to the p-value in the Student’s t-test. p-values of less than 0.05 were considered statistically significant.

SMILES: CN[C@@H]1Cc2c[nH]c3cccc(c23)[C@H]1/C=C(\C)CO [chanoclavine]
- inhibition at 10 µM (10 µM compound with 100 µM 5-HT, −80 mV, read-out: inhibition of I5-HT): 4 ± 3.8%
- inhibition at 30 µM (30 µM compound with 100 µM 5-HT, −80 mV, read-out: inhibition of I5-HT): 7.9 ± 4.1%
- inhibition at 100 µM (100 µM chanoclavine, wild type, read-out: Inhibition Percentage (%)): 42.5 ± 5.7%
- inhibition at 100 µM (100 µM compound with 100 µM 5-HT, −80 mV, read-out: inhibition of I5-HT): 42.5 ± 9.7%
- inhibition at 200 µM (200 µM compound with 100 µM 5-HT, −80 mV, read-out: inhibition of I5-HT): 61.6 ± 6.1%
- inhibition at 300 µM (300 µM compound with 100 µM 5-HT, −80 mV, read-out: inhibition of I5-HT): 75 ± 4.5%
- Imax of normalized 5-HT concentration-response current (5-HT 1 to 100 µM with 30 µM EC, −80 mV): 94.6 ± 24.4
- Imax of normalized 5-HT concentration-response current (5-HT 1 to 100 µM with 100 µM EC, −80 mV): 60 ± 2.2
- inhibition of voltage ramp current activated by 5-HT (+30 mV): 47.9 ± 3.4%
- inhibition of voltage ramp current activated by 5-HT (+60 mV): 49.5 ± 4%
- maximum inhibition (Imax) (Hill fit, co-application with 100 µM 5-HT, −80 mV): 83.6 ± 12.6%
- IC50 (co-application with 5-HT, read-out: half-maximal inhibitory response concentration (IC50) for block of 5-HT-induced 5-HT3A response): 107 µM
- current relative to the control group (competing at the same rate as 5-HT): about 50%
- manner of regulation of 5-HT3A-receptor channel activity (varied 5-HT concentration, fixed 30 or 100 µM chanoclavine): competitive
- inhibition of voltage ramp current activated by 5-HT (−30 mV): 40.9 ± 1.1%
- effect of compound alone (without 5-HT) (−80 mV holding potential, data not shown): no change
